Results on 23 molecules are retold here after US4060526A, “1-Heterocyclic alkyl-1,2,3,4-tetrahydroquinazolinones and analgesic intermediates thereof” (priority 1976, dated 1977).

The subject of one data set is sciatic nerve. Put plainly: local anesthesia, sciatic block. Type of data set: in vivo, mice. The following applies: Pos. = blockade took place and leg and foot returned to normal after a time.
In another data set the test system is NARCOTIC ANTAGONISM
Nature of the data set: narcotic antagonism (Table IV). Type of data set: in vivo. The conditions noted are these: I.P. As to the method:
The compounds of this invention were tested for their ability to antagonize narcotic analgesics by two different tests. […] Another test used for narcotic antagonist activity was published by Harris & Pearson. This test is modification of the D'Amour & Smith method.
In the original method the time required for rats to flick their tails following application of a heat stimulus is taken as a measure of analgesic potency.

The next data set deals with MOUSE TAIL STIMULATION
Put plainly: mouse tail stimulation analgesia. The following applies: Mus musculus, sc, read-out: MOUSE TAIL STIMULATION ED50.

Source text for sciatic nerve: An effective local anesthetic causes a blockade of the nerves of the lower leg and foot causing the animal, when permitted to walk, to do so flatfooted, rather than its normal habit, up on its toes. Alternatively an effective local anesthetic, by the sciatic block method, can cause the leg to be dragged by the animal when walking so long as effective sciatic block persists. Toxic agents may effect the same apparent results, but the blockade effected by toxic agents is irreversible. However, in contrast to toxic agents, an effective local anesthetic permits recovery of the use of the leg and foot after a period of time.
The mice used in the sciatic block test were placed in a holder with their hind limbs extended. A quantity of the test compound (e.g. 0.05 ml) was injected into the area surrounding the sciatic nerve at the juncture of the two major leg muscles. Effective local anesthetic activity is indicated in Table IV ("Pos." --meaning that the blockade did take place and that the leg and foot returned to normal after a time.)

As a reminder, the LD50 is the dose at which mortality reaches 50%. What is called NOAEL is the highest tested level that showed no adverse finding. In the case of `NC(=O)c1ccccc1NCCN1CCC(c2ccccc2)CC1` [XXX, 2-[2-(4-phenyl-1-piperidyl)ethylamino]benzamide], the “LOCAL ANESTHESIA SCIATIC BLOCK” value in the data set on sciatic nerve was “Positive”. Besides, in “in vivo” (ip), the LD50 turned out to be 200 mg/kg and the no observed adverse effect level (NOAEL) came out at 10 mg/kg. Also, the “NARCOTIC ANTAGONISM” value in the data set with NARCOTIC ANTAGONISM is given as “Positive”.
As to `Cl.Cl.Cl.NC(=O)c1ccccc1NCCN1CCN(Cc2ccccc2)CC1` [Example XX, 2-(2-[4-Benzyl-1-piperazinyl]ethylamino)benzamide trihydrochloride], in “in vivo” (ip), the 50% lethal dose (LD50) was determined as 100 mg/kg and the NOAEL turned out to be 10 mg/kg. Further, the “NARCOTIC ANTAGONISM” value in the data set with NARCOTIC ANTAGONISM is “Positive”.
In the case of `NC(=O)c1cc([N+](=O)[O-])ccc1NCCN1CCN(c2ccccc2)CC1` [XIX, 5-Nitro-2-(2-[4-phenyl-1-piperazinyl]ethylamino)benzamide], in the data set “in vivo” (po), the median lethal dose (LD50) is 300 mg/kg. Also, the “NARCOTIC ANTAGONISM” value in the data set with NARCOTIC ANTAGONISM was “Negative”.
Turning to `CC(C)=CCN1CCC2(C)c3cc(O)ccc3CC1C2C` (stereo not shown) [Pentazocine, reference compound], the “LOCAL ANESTHESIA SCIATIC BLOCK” value in the data set on sciatic nerve is recorded as “Positive”. In the data set “in vivo” (ip), this molecule had an LD50 of 140 mg/kg and an NOAEL of 30 mg/kg. Moreover, in the data set with NARCOTIC ANTAGONISM, the “NARCOTIC ANTAGONISM” value is reported as “Positive”.
On to `Cl.NC(=O)c1ccccc1NCCN1CCN(CCc2ccccc2)CC1` [XVII, 2-[2-(4-phenethyl-1-piperazinyl)ethylamino]benzamide hydrochloride], for which the “LOCAL ANESTHESIA SCIATIC BLOCK” value with sciatic nerve is “Positive”. In the data set “in vivo” (ip), this molecule displayed an LD50 of 70 mg/kg and a no observed adverse effect level (NOAEL) of 10 mg/kg. In addition, in the data set with NARCOTIC ANTAGONISM, the “NARCOTIC ANTAGONISM” value was “Negative”.
In “in vivo” (ip), `NC(=O)c1ccccc1NCCN1CCCCC1` [XXXI, 2-[N-β-(1-Piperidinoethyl)amino]benzamide] yielded an LD50 of 40 mg/kg and an NOAEL of 10 mg/kg. In addition, the “NARCOTIC ANTAGONISM” value with NARCOTIC ANTAGONISM is given as “Positive”.
Consider `CNC(=O)c1ccccc1NCCN1CCN(c2ccccc2)CC1` [XV, 2-(2-[4-phenyl-1-piperazinyl]ethylamino)-N-methylbenzamide], for which the “LOCAL ANESTHESIA SCIATIC BLOCK” value in the data set with sciatic nerve was “Positive”. In “in vivo” (ip), this molecule showed an LD50 of 200 mg/kg and an NOAEL of 3 mg/kg. Also, in the data set with NARCOTIC ANTAGONISM, the “NARCOTIC ANTAGONISM” value is listed as “Positive”.
In the case of `CCC(=O)OC1(c2ccccc2)CCN(CCN(Cc2ccccc2)c2ccccc2C(N)=O)CC1` [Example XXVII (Step 5 Title Compound)], in the data set “in vivo” (ip), the LD50 came to 100 mg/kg and the NOAEL turned out to be 3 mg/kg. The “NARCOTIC ANTAGONISM” value in the data set on NARCOTIC ANTAGONISM is listed as “Negative”.
For orientation: ED50 means the midpoint of the dose-response relation. For `CCOC(=O)C1(c2ccccc2)CCN(C)CC1` [Merperidine, reference compound], the “LOCAL ANESTHESIA SCIATIC BLOCK” value in the data set on sciatic nerve is “Positive”. Moreover, in the data set “in vivo” (ip), the 50% lethal dose (LD50) came out at 130 mg/kg and the no observed adverse effect level (NOAEL) came to 30 mg/kg. In the data set on MOUSE TAIL STIMULATION, the ED50 was determined as 1.8 mg/kg. Moreover, the “NARCOTIC ANTAGONISM” value in the data set with NARCOTIC ANTAGONISM is listed as “Negative”.
As to `COc1ccc(N2CCN(CCNc3ccccc3C(N)=O)CC2)cc1` [VII, 2-[2-(1-[p-Methoxyphenyl]-4-piperazinyl)ethylamino] benzamide], in the data set on sciatic nerve, the “LOCAL ANESTHESIA SCIATIC BLOCK” value is listed as “Positive”. In “in vivo” (ip), the median lethal dose (LD50) turned out to be 300 mg/kg and the no-observed-adverse-effect level (NOAEL) stood at 3 mg/kg. The “NARCOTIC ANTAGONISM” value with NARCOTIC ANTAGONISM is “Positive”.
For the molecule `CCC(=O)OC1(c2ccccc2)CCN(CCN(Cc2ccccc2)c2ccccc2C(=O)NC)CC1` [XXVIII, 2-[Benzyl-(2-[4-propionoxy-4-phenylpiperidyl]ethyl)amino]-N-methyl-benzamide], the median lethal dose (LD50) in the data set “in vivo” (po) was determined as 250 mg/kg.
Consider `NC(=O)c1ccccc1N(CCN1CCC(O)(c2ccccc2)CC1)Cc1ccccc1` [Example XXVII (Step 4 Title Compound), 2-[Benzyl-(2-[4-hydroxy-4-phenylpiperidyl]ethyl)amino]benzamide], for which, in the data set “in vivo” (ip), the LD50 amounted to 60 mg/kg and the no-observed-adverse-effect level (NOAEL) was 10 mg/kg.
In the case of `COc1ccc(NCCN2CCN(c3ccccc3)CC2)c(C(N)=O)c1` [XVIII, 5-Methoxy-2-(2[4-phenyl-1-piperazinyl]ethylamino)benzamide], in “in vivo” (ip), the median lethal dose (LD50) came to 300 mg/kg and the NOAEL is 1 mg/kg. In the data set with NARCOTIC ANTAGONISM, the “NARCOTIC ANTAGONISM” value was “Positive”.
On to `CCC(=O)OC1(c2ccccc2)CCN(CCNc2ccccc2C(=O)NC)CC1` [XXIX, 2-[2-(4-Propionoxy-4-phenylpiperidyl)ethylamino]-N-methyl-benzamide], for which the LD50 in “in vivo” (po) worked out at 16 mg/kg.
In the case of `CC(CNc1ccccc1C(N)=O)N1CCN(c2ccccc2)CC1.Cl` (stereo not shown) [XIV, 2-[2-(4-phenyl-1-piperazinyl)propylamino]benzamide hydrochloride], the “LOCAL ANESTHESIA SCIATIC BLOCK” value with sciatic nerve is recorded as “Positive”. In the data set “in vivo” (ip), this molecule showed a median lethal dose (LD50) of 300 mg/kg and a no-observed-adverse-effect level (NOAEL) of 10 mg/kg. Also, the “NARCOTIC ANTAGONISM” value in the data set on NARCOTIC ANTAGONISM was “Positive”.
In “in vivo” (ip), `CC(CN1CCN(c2ccccc2)CC1)Nc1ccccc1C(N)=O` (stereo not shown) [XXXII, 2-[1-methyl-2-(4-phenyl-1-piperazinyl)ethylamino]benzamide] registered an LD50 of 300 mg/kg and an NOAEL of 3 mg/kg. Also, the “NARCOTIC ANTAGONISM” value in the data set with NARCOTIC ANTAGONISM is recorded as “Negative”.
Regarding `Cl.O=C(c1ccccc1NCCN1CCN(c2ccccc2)CC1)N1CCOCC1` [XVI, N-(2-[2-(1-phenyl-4-piperazinyl)ethylamino]benzoyl) morpholine hydrochloride], in the data set “in vivo” (ip), the 50% lethal dose (LD50) was 250 mg/kg and the no-observed-adverse-effect level (NOAEL) turned out to be 10 mg/kg. In the data set with MOUSE TAIL STIMULATION, the median effective dose (ED50) amounted to 30 mg/kg. The “NARCOTIC ANTAGONISM” value in the data set with NARCOTIC ANTAGONISM was “Positive”.
With `CCOc1ccc(NCCN2CCN(c3ccccc3)CC2)c(C(N)=O)c1` [XXIV, 5-Ethoxy-2-(2-[4-phenyl-1-piperazinyl]ethylamino)benzamide], in the data set “in vivo” (ip), the LD50 amounted to 300 mg/kg and the no observed adverse effect level (NOAEL) is 30 mg/kg. Also, the “NARCOTIC ANTAGONISM” value in the data set on NARCOTIC ANTAGONISM is recorded as “Negative”.
In the case of `CS(=O)(=O)O.O=C1NC(c2ccccc2)N(CCN2CCC(O)(c3ccccc3)CC2)c2ccccc21` (stereo not shown) [Example XXVI, 1-[2-(4-Hydroxy-4-phenylpiperidino)ethyl]-2-phenyl-1,2,3,4-tetrahydro-4-quinazolinone Methanesulfonate], in the data set on sciatic nerve, the “LOCAL ANESTHESIA SCIATIC BLOCK” value is “Positive”. In the data set “in vivo” (ip), this molecule came in with a 50% lethal dose (LD50) of 200 mg/kg and an NOAEL of 3 mg/kg. In the data set on NARCOTIC ANTAGONISM, the “NARCOTIC ANTAGONISM” value was “Negative”.
In “in vivo” (ip), `CCC(=O)OC1(c2ccccc2)CCN(CCNc2ccccc2C(N)=O)CC1` [Example XXVII, 2-[2-(4-propionoxy-4-phenylpiperidyl)ethylamino]benzamide] displayed an LD50 of 60 mg/kg and an NOAEL of 0.1 mg/kg. The ED50 with MOUSE TAIL STIMULATION turned out to be 0.03 mg/kg.
Consider `Cl.NC(=O)c1cc(N)ccc1NCCN1CCN(c2ccccc2)CC1` [XXI, 5-Amino-2-(2-[4-phenyl-1-piperazinyl]-ethylamino)benzamide hydrochloride], for which the “LOCAL ANESTHESIA SCIATIC BLOCK” value in the data set on sciatic nerve is “Positive”. Besides, in “in vivo” (ip), the LD50 is 200 mg/kg and the NOAEL was determined as 10 mg/kg. In the data set on NARCOTIC ANTAGONISM, the “NARCOTIC ANTAGONISM” value is “Positive”.
With `COC(=O)c1ccccc1NCCN1CCN(c2ccccc2)CC1` [XII, Methyl 2-[2-(1-phenyl-4-piperazinyl)ethylamino]benzoate], in the data set with sciatic nerve, the “LOCAL ANESTHESIA SCIATIC BLOCK” value is “Positive”. In “in vivo” (ip), the 50% lethal dose (LD50) came to 300 mg/kg and the NOAEL was found to be 300 mg/kg. Also, in the data set on NARCOTIC ANTAGONISM, the “NARCOTIC ANTAGONISM” value is recorded as “Negative”.
With `O=C(Nc1ccccc1)c1ccccc1NCCN1CCN(c2ccccc2)CC1` [XXII, 2-[2-(1-Phenyl-4-piperazinyl)ethylamino]-N-phenylbenzamide], in the data set on sciatic nerve, the “LOCAL ANESTHESIA SCIATIC BLOCK” value is “Negative”. In addition, in “in vivo” (ip), the median lethal dose (LD50) came to 300 mg/kg and the NOAEL is 0.3 mg/kg. Moreover, the “NARCOTIC ANTAGONISM” value in the data set with NARCOTIC ANTAGONISM is given as “Positive”.
